Data from PMC11643494, “Structure–Activity Relationship Studies in a Series of 2-Aryloxy-N-(pyrimidin-5-yl)acetamide Inhibitors of SLACK Potassium Channels” (Molecules, 2024).

Molecular target: T1, Human G288S SLACK (Homo sapiens, UniProt Q5JUK3, G269S)
T1 construct: host or cells: CHO-K1
T1 sequence (Q5JUK3 1-1235 isoform Q5JUK3-3 G288S): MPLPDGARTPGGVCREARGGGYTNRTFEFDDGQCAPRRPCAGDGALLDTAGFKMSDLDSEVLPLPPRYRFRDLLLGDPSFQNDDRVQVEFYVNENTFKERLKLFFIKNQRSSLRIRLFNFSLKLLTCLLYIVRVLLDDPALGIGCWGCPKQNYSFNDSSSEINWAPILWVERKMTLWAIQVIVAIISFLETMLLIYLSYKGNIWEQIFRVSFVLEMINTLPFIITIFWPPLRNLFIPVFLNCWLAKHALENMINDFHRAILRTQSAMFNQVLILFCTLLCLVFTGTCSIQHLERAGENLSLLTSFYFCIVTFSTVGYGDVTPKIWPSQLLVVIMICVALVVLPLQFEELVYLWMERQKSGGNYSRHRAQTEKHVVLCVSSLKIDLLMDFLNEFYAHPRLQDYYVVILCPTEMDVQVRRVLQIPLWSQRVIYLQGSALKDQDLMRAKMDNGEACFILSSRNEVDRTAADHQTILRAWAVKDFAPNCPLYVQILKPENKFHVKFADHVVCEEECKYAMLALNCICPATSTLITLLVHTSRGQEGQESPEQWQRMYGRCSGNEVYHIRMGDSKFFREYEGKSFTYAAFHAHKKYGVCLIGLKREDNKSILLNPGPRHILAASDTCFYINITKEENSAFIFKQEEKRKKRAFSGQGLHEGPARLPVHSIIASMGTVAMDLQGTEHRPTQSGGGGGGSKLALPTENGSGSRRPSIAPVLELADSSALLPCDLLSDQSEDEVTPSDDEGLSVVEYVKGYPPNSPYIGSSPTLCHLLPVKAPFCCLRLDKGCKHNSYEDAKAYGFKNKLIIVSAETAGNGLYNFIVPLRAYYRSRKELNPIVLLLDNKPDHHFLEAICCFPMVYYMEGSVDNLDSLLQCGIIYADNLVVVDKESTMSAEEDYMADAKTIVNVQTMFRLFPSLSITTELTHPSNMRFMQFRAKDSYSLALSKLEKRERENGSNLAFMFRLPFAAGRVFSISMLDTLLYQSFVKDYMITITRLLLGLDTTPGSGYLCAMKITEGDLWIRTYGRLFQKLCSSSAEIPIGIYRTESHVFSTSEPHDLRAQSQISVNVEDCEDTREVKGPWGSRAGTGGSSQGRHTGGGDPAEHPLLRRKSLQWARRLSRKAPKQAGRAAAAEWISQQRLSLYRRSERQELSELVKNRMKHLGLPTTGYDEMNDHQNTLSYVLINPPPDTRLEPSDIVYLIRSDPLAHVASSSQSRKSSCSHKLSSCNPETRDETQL
Assay: Whole-cell APC in CHO-K1 cells stably expressing human G288S SLACK
Format: cell-based
Excerpt: Finally, we chose to screen the same two compounds versus mouse SLACK and two clinically relevant GOF SLACK mutants in APC assays utilizing CHO-K1 cells stably expressing these targets (Table 7). Screening versus the mouse homolog was deemed important for evaluating the potential of the series to ultimately lead to a useful in vivo tool via further optimization.
Stably transfected monoclonal HEK293 cell lines expressing SLICK, Maxi-K α1/β3, Maxi-K α1/β4, CaV3.2, GIRK 1/2, KV2.1, KV7.2, NaV1.7, and TASK-1 were generated as previously described. Stably transfected monoclonal HEK293 cell lines expressing hERG were generated as previously described. CHO-K1 cells expressing human SLACK and disease-associated human SLACK mutations, G288S and A934T, were generated by transfecting a PiggyBac TRE mammalian expression vector (VectorBuilder, Chicago, IL, USA) containing KCNT1. FuGENE 6 (Promega, Madison, WI, USA) transfection reagent and protocol, together with Opti-MEM (Thermo Fisher Scientific, Waltham, MA, USA), were utilized according to the manufacturer’s instructions.
Automated patch clamp recording was performed with a SyncroPatch 768 PE system (Nanion, Munich, Germany) as previously described. Whole-cell recordings were performed at room temperature. Cells were harvested by first washing with PBS without Mg^2+ or Ca^2+ (Gibco, Billings, MT, USA) to remove cell culture medium, followed by dissociation with TryPLE (Gibco, Billings, MT, USA). Cells were then resuspended and diluted to 200,000 cells/mL in external solution. External solution contained 105 mM NaCl, 4 mM KCl, 1 mM MgCl2, 5 mM CaCl2, 10 mM HEPES, 40 mM N-Methyl-D-glucamine chloride, titrated to pH 7.4 with NaOH and osmolarity of 300 mOsm/kg; internal solution contained 70 mM NaCl, 70 mM KF, 10 mM KCl, 5 mM EGTA, 5mM HEPES, titrated to a pH 7.2 with KOH and osmolarity of 295 mOsm/kg.
The APC protocol was set as following: Cells were held at […] −80 mV for 100 ms, then a ramp protocol was performed from −100 mV to 80 mV at 0.4 mV/ms, hold the cell at −80 mV for another 100 ms, then steps were performed at −20 mV, 0 mV, +20 mV, +40 mV, and +60 mV for 100 ms of each step. Whole-cell currents were measured at 0 mV and normalized to current after external buffer addition.

Compound | G288S SLACK inhibition, result in words (APC, CHO-K1 cells) | IC50 (APC, CHO-K1 cells, Human G288S SLACK) [µM] | Imax (Human G288S SLACK, maximum inhibition at 30 µM standardized to VU0606170 (set at 100%)) [%]
CC(C)(Oc1ccc(Cl)cc1)C(=O)Nc1cnc(Oc2c(F)cccc2F)nc1 [Analog 40] | inactive |  | 
CN(c1ccc(C#N)cc1)c1ncc(NC(=O)C(C)(C)Oc2ccc(Cl)cc2)cn1 [Analog 66] | only weakly active | > 10 | 40
